The values that follow come from patent US7470669B2, “Isolated polypeptide comprising a leptin fragment” (Serono Genetics Institute, S.A., priority 1999, dated 2008).

In one assay the test system is LSR. The experiment in a line: LSR activity (oleate-induced 125I-LDL binding, uptake, degradation) in PLC cells. The assay is classed as cell-based, human. The settings on record: for LSR activity in human cells: 22-mer peptide, increasing concentrations. How it is done: FIGS. 5A, 5B, 5C, and 5D show the stimulatory effect of leptin on LSR activity in PLC and suppression of this effect by 81B antibody. For FIGS. 5A, 5B, and 5C, cultured PLC cells were incubated at 37° C. for 30 min with increasing concentrations of human recombinant leptin in Buffer A. After this, 0.5 mM oleate and 20 μg/mL ^125I-LDL were added, and cells were further incubated at 37° C. for 2 h. Cells were washed, and the amount of oleate-induced ^125I-LDL bound (5A), internalized (5B) and degraded (5C) were measured. For FIG. 5D, PLC cells were incubated at room temperature for 30 min with 200 μg/mL anti-LSR peptide 81B or 170 antibody, followed by incubation at 37° C. for 30 min without (open bar) or with (hatched bar) 10 ng/mL human leptin. Oleate (0.5 mM) and ^125I-LDL (20 μg/mL) were added, and the monolayers were left at 37° C. for 3 h. After washing, the amount of ^125I-LDL binding was determined, and is shown here as the mean±SD of triplicate determinations.
FIGS. 8A and 8B show the effect of mouse or human leptin on LSR activity in primary cultures of rat hepatocytes or a human liver cell line (PLC). Primary cultured rat hepatocytes were obtained commercially (In Vitro Tech). The PLC cell line was obtained from ATCC repository and maintained in culture. Rat hepatocytes 72 h after plating (8A) or confluent monolayers of PLC (8B) were incubated 30 min at 37° C. with 0 (closed bar) or 10 ng/mL of human (open bar) or mouse (hatched bar) recombinant leptin. Following this, 0.5 mM oleate and 20 μg/mL ^125I-LDL were added and the cells were further incubated for 2 h at 37° C. […] The cells were washed, and the amount of oleate-induced ^125I-LDL bound and degraded was measured as described previously (Bihain, B. E., and Yen, F. T. (1992). Free fatty acids activate a high-affinity saturable pathway for degradation of low density lipoproteins infibroblasts from a subject homozygous for familial hypercholesterolemia. Biochemistry 31, 4628-4636.
FIGS. 35A and 35B show graphs of LSR activity and mRNA expression measured in PLC cells preincubated 24 h with leptin. In FIG. 35A, PLC monolayers were incubated 24 h at 37° C. with (o) or without (n) 200 ng/mL human recombinant leptin. After washing with PBS, cells were incubated 30 min at 37° C. with increasing concentrations of human leptin, followed by a 2 h incubation at 37° C. with 0.8 mM oleate and 20 μg/mL ^125I-LDL. Cells were washed, and the amount of oleate-induced ^125I-LDL binding was measured as described previously. Results are shown as the mean of triplicate determinations. In FIG. 35B, PLC monolayers were incubated 24 h at 37° C. with 0, 200, or 400 ng/mL human recombinant leptin. After washing with PBS, the cells were harvested. Total RNA was prepared from the cell pellets, and Northerns were performed to detect LSR mRNA, using GAPDH probe as loading control as described previously. Northern blots were scanned on the Phosphorimager (Molecular Dynamics, Sunnyvale, Calif.). Densitometric analysis of the images was performed using the software ImageQuant. Results are shown as the amount of LSR signal relative to that of GAPDH (mean±SD, n=3/condition). […]

For assay [1], the system named is bovine brain capillary endothelial cells. The experiment in a line: Leptin transcytosis in blood-brain barrier in vitro model. The assay is classed as cell-based. Conditions: for leptin transport / transcytosis: 10 ng/mL 125I-leptin + 50 μg/mL peptide. How it is done:
Cells were incubated with ^125I-leptin alone (10,000 dpm/ng) (closed squares), with 1 μg/mL unlabelled leptin (triangles), 50 μg/mL MP (circles), 50 μg/mL HP (open squares), or 2 mg/mL lactoferrin (asterisks).
Human leptin transport through the blood-brain barrier (BBB) is studied using an in vitro model (Dehouck, et al J Neurochem 54:1798-801, 1990 hereby incorporated herein by reference in its entirety including any figures, tables, or drawings). This model closely mimics the in vivo situation with regard to the selective passage of nutrients and drugs through the cerebro-vascular endothelium. […] Briefly, this model consists of a co-culture of bovine brain capillary endothelial cells (ECs) and rat astrocytes (FIG. 31). The astrocytes are seeded on the plastic of a six-well dish and grown for 3 weeks. A collagen-coated filter is then set in each dish and bovine ECs are plated on the upper-side of the filter. ECs form a confluent monolayer in 5 days and they are used for experiments after 16 days of coculture with astrocytes.
Leptin transcytosis: Experiments were performed on brain capillary endothelial cells in coculture with astrocytes for 16 days. On the day of the experiment, ECs were transferred to a clean 6-well plate containing 2 mL of Ringer-Hepes buffer (see, FIG. 32). At time 0, 1 mL Ringer Hepes containing ^125I-leptin was placed in the upper compartment. After 30, 60, 120, or 180 min incubation at 37° C. on a rocking platform, the insert was transferred into another well of a six-well plate to minimize the possible passage of substances from the lower to the upper compartment. At the end of the experiment, the amount of radioactivity of each well was counted. […]
The transport of molecules through the endothelial monolayer was determined for each time point as % passage: % passage of radiolabelled molecule through the endothelium: dpm found in the lower compartment at a time point divided by the initial dpm found in the upper compartment: % transport at 30 min=(lower dpm t30/upper dpm)*100.

On to “CHLPWASGLETLDSLGGVLEAS (listed as Homo sapiens) [human peptide, human leptin fragment residues 117-138, 22-mer]”, for which the “LSR activity in human cells” value with LSR (PLC cells) is reported as “agonistic”. Also, in assay [1], the “leptin transport / transcytosis” value was “significant increase”.
On the same counts, the results for “CSLPQTSGLQKPESLDGVLEAS (listed as Mus musculus) [mouse peptide, mouse leptin fragment residues 117-138, 22-mer]” are “antagonist” and “no significant effect”.
Turning to “leptin: plasma protein of 16 kDa produced by adipocytes; recombinant human or mouse leptin, species depends on the experiment”, the “leptin concentration at which the effect on LSR activity was observed” value with LSR (PLC cells, human recombinant leptin) is at least 10 ng/mL. In the assay with LSR (PLC cells, human recombinant leptin, 30 min preincubation, 0.5 mM oleate), the “oleate-induced LSR binding uptake and degradation of 125I-LDL” value is “directly increased”. For the same substance, the “leptin concentration needed for maximal stimulatory effect” value in the assay with LSR (PLC preincubated 24 h with 200 ng/mL leptin) was found to be 100 ng/mL. The “reduction of the maximal stimulatory effect on oleate-induced 125I-LDL binding” value in the assay with LSR (PLC preincubated 24 h with 200 ng/mL leptin, then short incubation with leptin) is reported as “about 50%”. Moreover, the “reduction of the amount of 125I-leptin transported” value in assay [1] (10 ng/mL 125I-leptin + 1 μg/mL cold leptin) is listed as “approximately 30%”.
